# Data reported in US6770597B2, “Benzohydrazide derivatives as herbicides and desiccant compositions containing them” (Ishihara Sangyo Kaisha, Ltd., priority 2002, dated 2004).
# Key:
# Assay type in all cases: in vivo
# [1] = test system: cocklebur (Xanthium strumarium, XANST); experiment: Greenhouse herbicide screen, pre-emerge application, phytotoxicity rating; details: PRE emergent, 14 days after application, rating scale 0-100
# Description: (§1) A standard greenhouse herbicide activity screening system was used to evaluate the herbicidal efficacy and crop safety of these test compounds. Seven broadleaf weed species including redroot pigweed (Amaranthus retrofiexus, AMARE), velvetleaf (Abutilon theophrasti, ABUTH), sicklepod (Cassia obtusifolia, CASOB), ivyleaf morningglory (Ipomoea hederacea, IPOHE), lambsquarters (Chenopodium album, CHEAL), common ragweed (Ambrosia artemisiifolia L., AMBEL), and cocklebur (Xanthium strumarium, XANST) were used as test species. Four grass weed species including green foxtail (Setaria viridis, SETVI), barnyardgrass (Echinochloa crus-galli, ECHCG), johnsongrass (Sorghum halepense, SORHA), and large crabgrass (Digitaria sanguinalis, DIGSA) were also used. In addition, four crop species, field corn (Zea mays L., var. Dekalb 535, CORN), soybean (Glycine max L., var. Pella 86, SOY), upland rice (Oryza sp., var.Cocodrie, RICE) and wheat (Triticum aestivum L.) were included.
# (§2) All plants were grown in 10 cm square plastic pots which were filled with a sandy loam soil mix. For pre-emerge tests, seeds were planted one day prior to application of the test compounds. For post-emerge tests, seeds were planted 8-21 days prior to the test to allow emergence and good foliage development prior to application of the test substances. At the time of the post-emerge application, plants of all species were usually at the 2-3 leaf stage of development.
# (§3) All test compounds were dissolved in acetone and applied to the test units in a volume of 187 l/ha. Test materials were applied at rates ranging from 15 g ai/ha to 1000 g ai/ha using a track sprayer equipped with a TJ8001E even flow flat fan spray nozzle. Plants were arranged on a shelf so that the top of the canopy (post-emerge) or top of the soil surface (pre-emerge) was 40-45 cm below the nozzle. Pressurized air was used to force the test solution through the nozzle as it was mechanically advanced (via electrically driven chain drive) over the top of all test plants/pots. This application simulates a typical commercial field herbicide application.
# (§4) Pre-emergence tests were top watered immediately after treatment to incorporate the test materials, then routinely top-watered for normal growth. Post-emerge test units were always bottom-watered.
# (§5) At 14 days after application of the test materials, phytotoxicity ratings were recorded. A rating scale of 0-100 was used as previously described in Research Methods in Weed Science, 2nd edition, B. Truelove, Ed., Southern Weed Science Society, Auburn University, Auburn, Ala., 1977. Briefly, “0” corresponds to no damage and “100” corresponds to complete death of all plants in the test unit. This scale was used both to determine efficacy against weed species and damage to crop species. Herbicide activity data for various compounds of this invention, which are shown by compound No. in Tables 1-12, are shown in Tables 13 and 14.
# [2] = test system: green foxtail (Setaria viridis, SETVI); experiment: as above; details: PRE emergent, 14 days after application, rating scale 0-100
# Description: as §1, §2, §3, §4, §5
# [3] = test system: redroot pigweed (Amaranthus retrofiexus, AMARE); experiment: as above; details: PRE emergent, 14 days after application, rating scale 0-100
# Description: as §1, §2, §3, §4, §5
# [4] = test system: common ragweed (Ambrosia artemisiifolia L., AMBEL); experiment: as above; details: PRE emergent, 14 days after application, rating scale 0-100
# Description: as §1, §2, §3, §4, §5
# [5] = test system: velvetleaf (Abutilon theophrasti, ABUTH); experiment: as above; details: PRE emergent, 14 days after application, rating scale 0-100
# Description: as §1, §2, §3, §4, §5
# [6] = test system: johnsongrass (Sorghum halepense, SORHA); experiment: as above; details: PRE emergent, 14 days after application, rating scale 0-100
# Description: as §1, §2, §3, §4, §5
# [7] = test system: ivyleaf morningglory (Ipomoea hederacea, IPOHE); experiment: as above; details: PRE emergent, 14 days after application, rating scale 0-100
# Description: as §1, §2, §3, §4, §5
# [8] = test system: large crabgrass (Digitaria sanguinalis, DIGSA); experiment: as above; details: PRE emergent, 14 days after application, rating scale 0-100
# Description: as §1, §2, §3, §4, §5
# [9] = test system: barnyardgrass (Echinochloa crus-galli, ECHCG); experiment: as above; details: PRE emergent, 14 days after application, rating scale 0-100
# Description: as §1, §2, §3, §4, §5
# [10] = test system: lambsquarters (Chenopodium album, CHEAL); experiment: as above; details: PRE emergent, 14 days after application, rating scale 0-100
# Description: as §1, §2, §3, §4, §5
# [11] = test system: sicklepod (Cassia obtusifolia, CASOB); experiment: as above; details: PRE emergent, 14 days after application, rating scale 0-100
# Description: as §1, §2, §3, §4, §5
# [12] = test system: cocklebur (Xanthium strumarium, XANST); experiment: Greenhouse herbicide screen, post-emerge application, phytotoxicity rating; details: POST emergent, 14 days after application, scale 0-100
# Description: as §1, §2, §3, §4, §5
# [13] = test system: green foxtail (Setaria viridis, SETVI); experiment: as above; details: POST emergent, 14 days after application, scale 0-100
# Description: as §1, §2, §3, §4, §5
# [14] = test system: redroot pigweed (Amaranthus retrofiexus, AMARE); experiment: as above; details: POST emergent, 14 days after application
# Description: as §1, §2, §3, §4, §5
# [15] = test system: common ragweed (Ambrosia artemisiifolia L., AMBEL); experiment: as above; details: POST emergent, 14 days after application, scale 0-100
# Description: as §1, §2, §3, §4, §5
# [16] = test system: velvetleaf (Abutilon theophrasti, ABUTH); experiment: as above; details: POST emergent, 14 days after application, scale 0-100
# Description: as §1, §2, §3, §4, §5
# [17] = test system: johnsongrass (Sorghum halepense, SORHA); experiment: as above; details: POST emergent, 14 days after application, scale 0-100
# Description: as §1, §2, §3, §4, §5
# [18] = test system: ivyleaf morningglory (Ipomoea hederacea, IPOHE); experiment: as above; details: POST emergent, 14 days after application, scale 0-100
# Description: as §1, §2, §3, §4, §5
# [19] = test system: large crabgrass (Digitaria sanguinalis, DIGSA); experiment: as above; details: POST emergent, 14 days after application, scale 0-100
# Description: as §1, §2, §3, §4, §5
# [20] = test system: barnyardgrass (Echinochloa crus-galli, ECHCG); experiment: as above; details: POST emergent, 14 days after application, scale 0-100
# Description: as §1, §2, §3, §4, §5
# [21] = test system: lambsquarters (Chenopodium album, CHEAL); experiment: as above; details: POST emergent, 14 days after application, scale 0-100
# Description: as §1, §2, §3, §4, §5
# [22] = test system: sicklepod (Cassia obtusifolia, CASOB); experiment: as above; details: POST emergent, 14 days after application, scale 0-100
# Description: as §1, §2, §3, §4, §5
smiles,measurement,setting,value
"CN(N=C(C(C)(C)C)C(C)(C)C)C(=O)c1cc(-n2c(=O)cc(C(F)(F)F)n(C)c2=O)c(F)cc1Cl [Compound 6-8, 2-chloro-5-(3,6-dihydro-3-methyl-2,6-dioxo-4-(trifluoromethyl)-1(2H)-pyrimidinyl)-4-fluoro-benzoic acid, 2-[1-(1,1-dimethylethyl)-2,2-dimethylpropylidene]-1-methylhydrazide]",phytotoxicity rating XANST,[1]; 63 g ai/ha,0
same,phytotoxicity rating XANST,[1]; 250 g ai/ha,70
same,phytotoxicity rating SETVI,[2]; 63 g ai/ha,55
same,phytotoxicity rating SETVI,[2]; 250 g ai/ha,99
same,phytotoxicity rating AMARE,[3]; 63 g ai/ha,100
same,phytotoxicity rating AMARE,[3]; 250 g ai/ha,100
same,phytotoxicity rating AMBEL,[4]; 63 g ai/ha,0
same,phytotoxicity rating AMBEL,[4]; 250 g ai/ha,99
same,phytotoxicity rating ABUTH,[5]; 63 g ai/ha,99
same,phytotoxicity rating ABUTH,[5]; 250 g ai/ha,99
same,phytotoxicity rating SORHA,[6]; 63 g ai/ha,55
same,phytotoxicity rating SORHA,[6]; 250 g ai/ha,100
same,phytotoxicity rating IPOHE,[7]; 63 g ai/ha,60
same,phytotoxicity rating IPOHE,[7]; 250 g ai/ha,100
same,phytotoxicity rating DIGSA,[8]; 63 g ai/ha,60
same,phytotoxicity rating DIGSA,[8]; 250 g ai/ha,95
same,phytotoxicity rating ECHCG,[9]; 63 g ai/ha,30
same,phytotoxicity rating ECHCG,[9]; 250 g ai/ha,85
same,phytotoxicity rating CHEAL,[10]; 63 g ai/ha,100
same,phytotoxicity rating CHEAL,[10]; 250 g ai/ha,100
same,phytotoxicity rating CASOB,[11]; 63 g ai/ha,20
same,phytotoxicity rating CASOB,[11]; 250 g ai/ha,70
same,phytotoxicity rating XANST,[12]; 63 g ai/ha,35
same,phytotoxicity rating XANST,[12]; 250 g ai/ha,100
same,phytotoxicity rating SETVI,[13]; 63 g ai/ha,50
same,phytotoxicity rating SETVI,[13]; 250 g ai/ha,75
same,phytotoxicity rating AMARE,"[14]; 63 g ai/ha, scale 0-100 (0 no damage, 100 complete death)",99
same,phytotoxicity rating AMARE,"[14]; 250 g ai/ha, scale 0-100",100
same,phytotoxicity rating AMBEL,[15]; 63 g ai/ha,70
same,phytotoxicity rating AMBEL,[15]; 250 g ai/ha,70
same,phytotoxicity rating ABUTH,[16]; 63 g ai/ha,50
same,phytotoxicity rating ABUTH,[16]; 250 g ai/ha,100
same,phytotoxicity rating SORHA,[17]; 63 g ai/ha,65
same,phytotoxicity rating SORHA,[17]; 250 g ai/ha,95
same,phytotoxicity rating IPOHE,[18]; 63 g ai/ha,100
same,phytotoxicity rating IPOHE,[18]; 250 g ai/ha,100
same,phytotoxicity rating DIGSA,[19]; 63 g ai/ha,50
same,phytotoxicity rating DIGSA,[19]; 250 g ai/ha,60
same,phytotoxicity rating ECHCO,[20]; 63 g ai/ha,60
same,phytotoxicity rating ECHCO,[20]; 250 g ai/ha,85
same,phytotoxicity rating CHEAL,[21]; 63 g ai/ha,80
same,phytotoxicity rating CHEAL,[21]; 250 g ai/ha,100
same,phytotoxicity rating CASOB,[22]; 63 g ai/ha,50
same,phytotoxicity rating CASOB,[22]; 250 g ai/ha,60
